Measurements as given in ChEMBL document CHEMBL3045068, “Effect of methomyl and oxamyl soil applications on early control of nematodes and insects” (Pest Manag Sci, 2011).
In brackets after ≈: the same amount, converted by molar mass.

Key:
[1] = system: Aphis gossypii; test: Insecticidal activity against Aphis gossypii (cotton aphid) infested cotton assessed as mortality applied to soil after 5 days; assay type: functional
[2] = system: Myzus persicae; test: Insecticidal activity against Myzus persicae (green peach aphid) infested tomato assessed as mortality applied to soil after 5 days; assay type: functional
[3] = system: Phaseolus lunatus; test: Phytotoxicity in Phaseolus lunatus (lima bean) root assessed as root dry weight at 2.12 kg ai/ha applied to soil measured up to 7 days under green house conditions (reference value: 0.36 +/- 0.071 g); assay type: organism-based; conditions: in vivo, other, 168 h
[4] = system: Phaseolus lunatus; test: Phytotoxicity in Phaseolus lunatus (lima bean) root assessed as root dry weight at 1.12 kg ai/ha applied to soil under green house conditions (reference value: 0.36 +/- 0.071 g); assay type: organism-based; conditions: in vivo, other
[5] = system: Phaseolus lunatus; test: Phytotoxicity in Phaseolus lunatus (lima bean) root assessed as root dry weight at 1.56 kg ai/ha applied to soil measured up to 7 days under green house conditions (reference value: 0.36 +/- 0.071 g); assay type: organism-based; conditions: in vivo, other, 168 h
[6] = system: Solanum lycopersicum; test: Phytotoxicity in Solanum lycopersicum (tomato) assessed as foliar edge burn at 200 ug/mL applied through foliar spray after 5 weeks; assay type: organism-based; conditions: in vivo, other, 840 h
[7] = system: Meloidogyne incognita; test: Nematicidal activity against second juvenile stage of Meloidogyne incognita (root-knot nematode) infected lima bean plant assessed as shoot dry weight at 4 kg ai/ha applied to soil measured up to 14 days post planting under green house conditions (reference value: 1.84 +/- 0.18 g); assay type: functional
[8] = system: Meloidogyne incognita; test: Nematicidal activity against second juvenile stage of Meloidogyne incognita (root-knot nematode) infected pea plant assessed as plant fresh weight at 4 kg ai/ha applied to soil measured up to 7 days post planting under green house conditions (reference value: 4.3 +/- 0.56 g); assay type: functional
[9] = system: Meloidogyne incognita; test: Nematicidal activity against second juvenile stage of Meloidogyne incognita (root-knot nematode) infected pea plant assessed as root fresh weight at 4 kg ai/ha applied to soil measured up to 14 days post planting under green house conditions (reference value: 4.3 +/- 0.56 g); assay type: functional
[10] = system: Meloidogyne incognita; test: Nematicidal activity against second juvenile stage of Meloidogyne incognita (root-knot nematode) infected pea plant assessed as root dry weight at 4 kg ai/ha applied to soil measured up to 14 days post planting under green house conditions (reference value: 0.25 +/- 0.041 g); assay type: functional
[11] = system: Meloidogyne incognita; test: Nematicidal activity against second juvenile stage of Meloidogyne incognita (root-knot nematode) infected pea plant assessed as root dry weight at 3 kg ai/ha applied to soil measured up to 14 days post planting under green house conditions (reference value: 0.25 +/- 0.041 g); assay type: functional
[12] = system: Meloidogyne incognita; test: Nematicidal activity against second juvenile stage of Meloidogyne incognita (root-knot nematode) infected pea plant assessed as root dry weight at 2 kg ai/ha applied to soil measured up to 7 days post planting under green house conditions (reference value: 0.25 +/- 0.041 g); assay type: functional
[13] = system: Meloidogyne incognita; test: Nematicidal activity against second juvenile stage of Meloidogyne incognita (root-knot nematode) infected pea plant assessed as emergence at 2 kg ai/ha applied to soil measured up to 7 days post planting under green house conditions (reference value: 75 +/- 13%); assay type: functional
[14] = system: Meloidogyne incognita; test: Nematicidal activity against second juvenile stage of Meloidogyne incognita (root-knot nematode) infected pea plant assessed as root fresh weight at 4 kg ai/ha applied to soil measured up to 7 days post planting under green house conditions (reference value: 1.83 +/- 0.3 g); assay type: functional
[15] = system: Phaseolus lunatus; test: Phytotoxicity in Phaseolus lunatus (lima bean) plant assessed as plant dry weight at 2.12 kg ai/ha applied to soil measured up to 7 days under green house conditions (reference value: 1.20 +/- 0.21 g); assay type: organism-based; conditions: in vivo, other, 168 h
[16] = system: Phaseolus lunatus; test: Phytotoxicity in Phaseolus lunatus (lima bean) plant assessed as emergence at 2.56 kg ai/ha applied to soil measured up to 14 days under green house conditions (reference value: 70 +/- 16%); assay type: organism-based; conditions: in vivo, other, 336 h
[17] = system: Phaseolus lunatus; test: Phytotoxicity in Phaseolus lunatus (lima bean) plant assessed as emergence at 1.56 kg ai/ha applied to soil measured up to 7 days under green house conditions (reference value: 70 +/- 16%); assay type: organism-based; conditions: in vivo, other, 168 h
[18] = system: Phaseolus lunatus; test: Phytotoxicity in Phaseolus lunatus (lima bean) plant assessed as emergence at 0.56 kg ai/ha under green house conditions applied to soil (reference value: 70 +/- 16%); assay type: organism-based; conditions: in vivo, other
[19] = system: Pisum sativum; test: Phytotoxicity in Pisum sativum (pea) assessed as root dry weight at 4 kg ai/ha applied to soil measured up to 7 days post planting at 19 degC (reference value: 2 +/- 0.21 g); assay type: organism-based; conditions: lathyrus oleraceus, in vivo, other, 168 h
[20] = system: Pisum sativum; test: Phytotoxicity in Pisum sativum (pea) assessed as root dry weight at 2 kg ai/ha applied to soil measured up to 7 days post planting at 19 degC (reference value: 2 +/- 0.21 g); assay type: organism-based; conditions: lathyrus oleraceus, in vivo, other, 168 h
[21] = system: Pisum sativum; test: Phytotoxicity in Pisum sativum (pea) assessed as root dry weight at 3 kg ai/ha applied to soil measured up to 7 days post planting at 19 degC (reference value: 2 +/- 0.21 g); assay type: organism-based; conditions: lathyrus oleraceus, in vivo, other, 168 h
[22] = system: Pisum sativum; test: Phytotoxicity in Pisum sativum (pea) assessed as plant fresh weight at 3 kg ai/ha applied to soil measured up to 7 days post planting at 19 degC (reference value: 9.4 +/- 0.54 g); assay type: organism-based; conditions: lathyrus oleraceus, in vivo, other, 168 h
[23] = system: Pisum sativum; test: Phytotoxicity in Pisum sativum (pea) assessed as plant height at 3 kg ai/ha applied to soil measured up to 7 days post planting at 27 degC under green house conditions (reference value: 9.6 +/- 1.5 cm); assay type: organism-based; conditions: lathyrus oleraceus, in vivo, other, 168 h
[24] = system: Pisum sativum; test: Phytotoxicity in Pisum sativum (pea) assessed as emergence at 4 kg ai/ha applied to soil measured up to 7 days post planting at 19 degC relative to untreated control; assay type: organism-based; conditions: lathyrus oleraceus, in vivo, other, 168 h
[25] = system: Pisum sativum; test: Phytotoxicity in Pisum sativum (pea) assessed as emergence at 4 kg ai/ha applied to soil measured up to 7 days post planting at 27 degC under green house conditions (reference value: 70 +/- 3.3%); assay type: organism-based; conditions: lathyrus oleraceus, in vivo, other, 168 h
[26] = system: Pisum sativum; test: Phytotoxicity in Pisum sativum (pea) assessed as emergence at 2 kg ai/ha applied to soil measured up to 7 days post planting at 27 degC under green house conditions (reference value: 70 +/- 3.3%); assay type: organism-based; conditions: lathyrus oleraceus, in vivo, other, 168 h
[27] = system: Pisum sativum; test: Phytotoxicity in Pisum sativum (pea) assessed as emergence at 3 kg ai/ha applied to soil measured up to 14 days post planting at 27 degC under green house conditions (reference value: 70 +/- 3.3%); assay type: organism-based; conditions: lathyrus oleraceus, in vivo, other, 336 h
[28] = system: Meloidogyne incognita; test: Nematicidal activity against second juvenile stage of Meloidogyne incognita (root-knot nematode) infected lima bean plant assessed as emergence at 4 kg ai/ha applied to soil measured up to 14 days post planting under green house conditions (reference value: 83 +/- 5%); assay type: functional
[29] = system: Meloidogyne incognita; test: Nematicidal activity against second juvenile stage of Meloidogyne incognita (root-knot nematode) infected lima bean plant assessed as emergence at 2 kg ai/ha applied to soil measured up to 7 days post planting under green house conditions (reference value: 83 +/- 5%); assay type: functional

Compound: CNC(=O)ON=C(C)SC [METHOMYL]
- LC90 [1]: 11 µg/mL (≈ 67.8 µM)
- LC50 ([1]; Aphis gossypii, soil, 120 h): 5 µg/mL (≈ 30.8 µM)
- LC90 [2]: 11 µg/mL (≈ 67.8 µM)
- LC50 ([2]; Myzus persicae, soil, 120 h): 1 µg/mL (≈ 6.16 µM)
- Activity [3]: 0.2 g
- Activity [4]: 0.35 g
- Activity [5]: 0.26 g
- Activity [6]: Non-toxic
- Activity [7]: 1.02 g
- Activity [8]: 5.5 g
- Activity [9]: 5.5 g
- Activity [10]: 0.31 g
- Activity [11]: 0.25 g
- Activity [12]: 0.34 g
- Activity [13]: 50%
- Activity [14]: 1.59 g
- Activity [15]: 0.66 g
- Activity [16]: 80%
- Activity [17]: 80%
- Activity [18]: 80%
- Activity [19]: 1.7 g
- Activity [20]: 3.1 g
- Activity [21]: 2.2 g
- Activity [22]: 9.4 g
- Activity [23]: 7 cm
- Activity [24]: 100%
- Activity [25]: 60%
- Activity [26]: 50%
- Activity [27]: 80%
- Activity [28]: 83%
- Activity [29]: 100%
